Laboratory results published in ChEMBL document CHEMBL1152288, “Characterization of thien-2-yl 1S,2R-milnacipran analogues as potent norepinephrine/serotonin transporter inhibitors for the treatment of neuropathic pain” (J Med Chem, 2008).
Activity calls are given as the source filed them. The calls are words filed in the database; no cut-off is given here.

Legend:
[1] = Metabolic stability in human liver microsomes assessed as systemic clearance at 1 uM after 15 mins by LC-MS/MS analysis; format: ADME, Microsome
[2] = Metabolic stability in rat liver microsomes assessed as systemic clearance at 1 uM after 15 mins by LC-MS/MS analysis; format: ADME, Microsome
[3] = Partition coefficient, log P of the compound; format: physicochemical; conditions: octanol/water
[4] = biological target: Sodium-dependent dopamine transporter (Homo sapiens, UniProt Q01959); assay: biochemical
Description: Displacement of 3,4-[ring-2,5,6-3H]dihydroxyphenylethylamine from human cloned DAT expressed in HEK293 cells by microplate scintillation counter

[5] = biological target: Sodium-dependent serotonin transporter (Homo sapiens, UniProt P31645); assay: biochemical
Description: Displacement of [alpha,beta-3H(N)]-5-hydroxytryptamine from human cloned SERT expressed in HEK293 cells by microplate scintillation counter

[6] = biological target: Sodium-dependent noradrenaline transporter (Homo sapiens, UniProt P23975); assay: biochemical
Description: Displacement of Levo[ring-2,5,6-3H]norepinephrine from human cloned NET expressed in HEK293 cells by microplate scintillation counter

[7] = Lipophilicity, log D of the compound; format: physicochemical; conditions: octanol/water
in vitro = conditions: human, Caco-2
Description: Apparent permeability from apical to basolateral side of the human Caco-2 cells

[8] = Apparent elimination half life in Sprague-Dawley rat at 30 mg/kg, po; format: ADME, organism-based; design: dose 30 mg/kg, route oral; conditions: in vivo, read-out: beta t1/2 (converted)
Transporter = Transporter (Rattus norvegicus, UniProt Q63380); assay: biochemical
Description: Displacement of Levo[ring-2,5,6-3H]norepinephrine from rat synaptosomal NET expressed in HEK293 cells by microplate scintillation counter

[9] = Drug level in Sprague-Dawley rat brain at 30 mg/kg, po after 4 hrs; format: ADME, organism-based; design: dose 30 mg/kg, route oral; conditions: read-out: Drug uptake
[10] = Ratio of drug level in brain to plasma in Sprague-Dawley rat at 30 mg/kg, po after 4 hrs; format: ADME, organism-based; design: dose 30 mg/kg, route oral
[11] = biological target: Sodium-dependent dopamine transporter (Rattus norvegicus, UniProt P23977); assay: biochemical
Description: Displacement of 3,4-[ring-2,5,6-3H]dihydroxyphenylethylamine from rat synaptosomal DAT expressed in HEK293 cells by microplate scintillation counter

[12] = Apparent oral clearance in Sprague-Dawley rat at 30 mg/kg, po; format: ADME, organism-based; design: dose 30 mg/kg, route oral; conditions: in vivo
[13] = biological target: Sodium-dependent serotonin transporter (Rattus norvegicus, UniProt P31652); format: cell-based, HEK293
[14] = Ratio of drug level in brain to plasma in Sprague-Dawley rat at 30 mg/kg, po after 1 hr; format: ADME, organism-based; design: dose 30 mg/kg, route oral
Rattus norvegicus [15] = assay: Antinociceptive activity in CD rat assessed as reduction in number of hind paw flinching at 60 mg/kg, po by formalin test; format: functional; design: scale not given: the % may be the effect or the level left
[16] = Tmax in Sprague-Dawley rat at 30 mg/kg, po; format: ADME, organism-based; design: dose 30 mg/kg, route oral; conditions: in vivo
[17] = AUC in Sprague-Dawley rat at 30 mg/kg, po; format: ADME, organism-based; design: dose 30 mg/kg, route oral; conditions: plasma
[18] = Cmax in Sprague-Dawley rat at 30 mg/kg, po; format: ADME, organism-based; design: dose 30 mg/kg, route oral; conditions: in vivo
[19] = Drug level in Sprague-Dawley rat brain at 30 mg/kg, po after 1 hr; format: ADME, organism-based; design: dose 30 mg/kg, route oral; conditions: read-out: Drug uptake
[20] = Half life in Sprague-Dawley rat at 5 mg/kg, iv; format: ADME, organism-based; design: dose 5 mg/kg, route intravenous; conditions: in vivo
Cytochrome P450 2D6 = Cytochrome P450 2D6 (Homo sapiens, UniProt P10635); assay: Inhibition of CYP2D6; format: ADME
[21] = Drug excretion in Sprague-Dawley rat urine at 5 mg/kg, iv; format: ADME, organism-based; design: dose 5 mg/kg, route intravenous; conditions: read-out: Activity
[22] = Volume of distribution in Sprague-Dawley rat at 5 mg/kg, iv; format: ADME, organism-based; design: dose 5 mg/kg, route intravenous; conditions: in vivo
[23] = Bioavailability in Sprague-Dawley rat at 5 mg/kg, iv; format: ADME, organism-based; conditions: in vivo
[24] = Mean residence time in Sprague-Dawley rat at 5 mg/kg, iv; format: ADME, organism-based; design: dose 5 mg/kg, route intravenous; conditions: in vivo
[25] = Renal clearance in Sprague-Dawley rat at 5 mg/kg, iv; format: ADME, organism-based, Kidney; design: dose 5 mg/kg, route intravenous; conditions: in vivo, read-out: CL_renal
[26] = biological target: Voltage-gated inwardly rectifying potassium channel KCNH2 (Homo sapiens, UniProt Q12809)
Description: Inhibition of human ERG expressed in HEK293 cells by patch-clamp method

[27] = Plasma clearance in Sprague-Dawley rat at 5 mg/kg, iv; format: ADME, organism-based; design: dose 5 mg/kg, route intravenous
[28] = Volume of distribution at steady state in Sprague-Dawley rat at 5 mg/kg, iv; format: ADME, organism-based; design: dose 5 mg/kg, route intravenous; conditions: in vivo, read-out: Vdss
[29] = AUC in Sprague-Dawley rat at 5 mg/kg, iv; format: ADME, organism-based; design: dose 5 mg/kg, route intravenous; conditions: plasma
Rattus norvegicus [30] = assay: Antinociceptive activity in CD rat assessed as reduction in number of hind paw flinching at 100 mg/kg, po by formalin test; format: functional, organism-based; design: dose 100 mg/kg
[31] = Half life in Sprague-Dawley rat at 2.5 mg/kg, iv; format: ADME, organism-based; design: dose 2.5 mg/kg, route intravenous; conditions: in vivo
[32] = Mean residence time in Sprague-Dawley rat at 2.5 mg/kg, iv; format: ADME, organism-based; design: dose 2.5 mg/kg, route intravenous; conditions: in vivo
[33] = Cmax in Sprague-Dawley rat at 10 mg/kg, po; format: ADME, organism-based; design: dose 10 mg/kg, route oral; conditions: in vivo
in vivo [34] = conditions: Sprague-Dawley, rat, brain/plasma, po, 10 mg/kg
Description: Ratio of drug level in brain to plasma in Sprague-Dawley rat at 10 mg/kg, po after 4 hrs

Rattus norvegicus [35] = species on record: Rattus norvegicus; assay: Reversal of pin-prick-induced neuropathic mechanical hyperalgesia in Harlan Sprague-Dawley rat sciatic nerve ligation model; format: functional, organism-based
[36] = AUC in Sprague-Dawley rat at 10 mg/kg, po; format: ADME, organism-based; design: dose 10 mg/kg, route oral; conditions: plasma
in vivo [37] = conditions: Sprague-Dawley, rat, brain/plasma, po, 10 mg/kg; remark: listed apart in the source
Description: Ratio of drug level in brain to plasma in Sprague-Dawley rat at 10 mg/kg, po after 1 hr

[38] = Volume of distribution in Sprague-Dawley rat at 2.5 mg/kg, iv; format: ADME, organism-based; design: dose 2.5 mg/kg, route intravenous; conditions: in vivo
[39] = Apparent oral clearance in Sprague-Dawley rat at 10 mg/kg, po; format: ADME, organism-based; design: dose 10 mg/kg, route oral; conditions: in vivo
[40] = Tmax in Sprague-Dawley rat at 10 mg/kg, po; format: ADME, organism-based; design: dose 10 mg/kg, route oral; conditions: in vivo
[41] = Apparent elimination half life in Sprague-Dawley rat at 10 mg/kg, po; format: ADME, organism-based; design: dose 10 mg/kg, route oral; conditions: in vivo, read-out: beta t1/2 (converted)
[42] = Plasma clearance in Sprague-Dawley rat at 2.5 mg/kg, iv; format: ADME, organism-based; design: dose 2.5 mg/kg, route intravenous
[43] = Volume of distribution at steady state in Sprague-Dawley rat at 2.5 mg/kg, iv; format: ADME, organism-based; design: dose 2.5 mg/kg, route intravenous; conditions: in vivo, read-out: Vdss
[44] = Bioavailability in Sprague-Dawley rat at 2.5 mg/kg, iv; format: ADME, organism-based; conditions: in vivo
[45] = AUC in Sprague-Dawley rat at 2.5 mg/kg, iv; format: ADME, organism-based; design: dose 2.5 mg/kg, route intravenous; conditions: plasma
Rattus norvegicus [46] = assay: Antinociceptive activity in CD rat assessed as reduction in number of hind paw flinching at 30 mg/kg, po by formalin test; format: functional, organism-based; design: dose 30 mg/kg

Sodium-dependent dopamine transporter (Rattus norvegicus, UniProt P23977), sequence (P23977 whole entry): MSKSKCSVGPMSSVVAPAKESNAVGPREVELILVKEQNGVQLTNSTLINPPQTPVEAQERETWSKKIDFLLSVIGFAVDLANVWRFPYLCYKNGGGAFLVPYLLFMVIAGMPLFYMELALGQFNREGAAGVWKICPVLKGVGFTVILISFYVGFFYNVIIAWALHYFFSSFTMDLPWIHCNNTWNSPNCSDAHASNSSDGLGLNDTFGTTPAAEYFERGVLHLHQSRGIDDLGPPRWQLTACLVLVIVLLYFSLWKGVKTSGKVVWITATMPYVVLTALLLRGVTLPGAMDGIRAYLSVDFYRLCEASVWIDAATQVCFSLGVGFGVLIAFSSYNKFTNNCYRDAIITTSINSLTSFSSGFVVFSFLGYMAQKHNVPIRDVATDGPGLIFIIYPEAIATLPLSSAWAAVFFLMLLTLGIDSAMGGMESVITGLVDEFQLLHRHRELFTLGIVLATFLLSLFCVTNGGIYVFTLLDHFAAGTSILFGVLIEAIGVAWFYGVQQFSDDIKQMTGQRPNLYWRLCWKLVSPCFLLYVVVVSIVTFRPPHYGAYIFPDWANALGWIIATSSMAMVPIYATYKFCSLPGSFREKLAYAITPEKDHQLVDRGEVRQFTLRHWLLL
Sodium-dependent serotonin transporter (Rattus norvegicus, UniProt P31652), sequence (P31652 whole entry): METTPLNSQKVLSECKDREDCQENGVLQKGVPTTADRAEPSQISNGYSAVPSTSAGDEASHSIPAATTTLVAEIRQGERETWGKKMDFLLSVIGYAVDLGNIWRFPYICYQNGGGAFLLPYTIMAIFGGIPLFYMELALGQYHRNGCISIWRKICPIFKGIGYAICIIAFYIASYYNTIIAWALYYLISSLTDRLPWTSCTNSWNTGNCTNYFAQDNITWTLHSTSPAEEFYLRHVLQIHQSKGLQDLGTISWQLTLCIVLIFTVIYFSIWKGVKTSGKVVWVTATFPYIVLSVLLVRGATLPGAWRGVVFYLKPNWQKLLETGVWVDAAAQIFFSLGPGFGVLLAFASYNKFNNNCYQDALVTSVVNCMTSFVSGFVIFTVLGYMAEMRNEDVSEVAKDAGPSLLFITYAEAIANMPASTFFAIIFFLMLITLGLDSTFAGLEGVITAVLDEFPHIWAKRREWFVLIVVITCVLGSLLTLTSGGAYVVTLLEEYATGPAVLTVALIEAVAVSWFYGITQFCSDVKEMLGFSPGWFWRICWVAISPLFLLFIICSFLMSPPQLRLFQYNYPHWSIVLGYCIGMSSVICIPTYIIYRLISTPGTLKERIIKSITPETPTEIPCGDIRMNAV
Sodium-dependent noradrenaline transporter, sequence (P23975 whole entry): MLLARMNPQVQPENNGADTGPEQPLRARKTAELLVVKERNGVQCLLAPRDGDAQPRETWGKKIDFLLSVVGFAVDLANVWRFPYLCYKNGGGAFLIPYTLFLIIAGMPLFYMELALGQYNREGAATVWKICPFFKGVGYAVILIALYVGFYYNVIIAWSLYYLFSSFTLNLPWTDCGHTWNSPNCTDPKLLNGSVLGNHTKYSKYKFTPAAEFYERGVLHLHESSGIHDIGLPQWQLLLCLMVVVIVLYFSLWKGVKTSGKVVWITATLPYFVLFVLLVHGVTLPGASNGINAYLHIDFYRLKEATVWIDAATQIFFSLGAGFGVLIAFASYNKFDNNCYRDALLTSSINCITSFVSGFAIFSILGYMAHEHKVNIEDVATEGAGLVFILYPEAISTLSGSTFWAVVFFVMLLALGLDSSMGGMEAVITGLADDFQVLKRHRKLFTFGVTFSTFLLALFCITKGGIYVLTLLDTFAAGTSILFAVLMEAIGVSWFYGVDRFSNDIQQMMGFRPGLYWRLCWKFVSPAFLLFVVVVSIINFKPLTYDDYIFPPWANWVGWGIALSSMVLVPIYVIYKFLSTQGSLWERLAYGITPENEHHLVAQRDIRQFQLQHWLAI
Transporter, sequence (Q63380 whole entry): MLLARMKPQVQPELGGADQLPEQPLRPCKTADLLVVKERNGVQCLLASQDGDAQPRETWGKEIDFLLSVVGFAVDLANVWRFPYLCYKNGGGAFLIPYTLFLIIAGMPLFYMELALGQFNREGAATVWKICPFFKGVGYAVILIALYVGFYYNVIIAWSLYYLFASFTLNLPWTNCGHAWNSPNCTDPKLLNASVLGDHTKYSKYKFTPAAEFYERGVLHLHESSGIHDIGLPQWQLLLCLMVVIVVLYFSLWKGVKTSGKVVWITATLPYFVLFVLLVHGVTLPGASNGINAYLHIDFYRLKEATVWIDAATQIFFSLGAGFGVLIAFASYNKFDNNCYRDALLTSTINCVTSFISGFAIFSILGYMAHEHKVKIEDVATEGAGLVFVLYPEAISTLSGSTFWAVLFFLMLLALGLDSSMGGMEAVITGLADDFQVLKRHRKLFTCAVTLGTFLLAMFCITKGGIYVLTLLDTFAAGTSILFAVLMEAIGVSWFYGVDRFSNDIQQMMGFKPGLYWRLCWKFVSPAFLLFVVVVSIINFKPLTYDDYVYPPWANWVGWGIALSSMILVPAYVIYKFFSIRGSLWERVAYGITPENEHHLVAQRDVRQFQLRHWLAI
Sodium-dependent serotonin transporter (Homo sapiens, UniProt P31645), sequence (P31645 whole entry): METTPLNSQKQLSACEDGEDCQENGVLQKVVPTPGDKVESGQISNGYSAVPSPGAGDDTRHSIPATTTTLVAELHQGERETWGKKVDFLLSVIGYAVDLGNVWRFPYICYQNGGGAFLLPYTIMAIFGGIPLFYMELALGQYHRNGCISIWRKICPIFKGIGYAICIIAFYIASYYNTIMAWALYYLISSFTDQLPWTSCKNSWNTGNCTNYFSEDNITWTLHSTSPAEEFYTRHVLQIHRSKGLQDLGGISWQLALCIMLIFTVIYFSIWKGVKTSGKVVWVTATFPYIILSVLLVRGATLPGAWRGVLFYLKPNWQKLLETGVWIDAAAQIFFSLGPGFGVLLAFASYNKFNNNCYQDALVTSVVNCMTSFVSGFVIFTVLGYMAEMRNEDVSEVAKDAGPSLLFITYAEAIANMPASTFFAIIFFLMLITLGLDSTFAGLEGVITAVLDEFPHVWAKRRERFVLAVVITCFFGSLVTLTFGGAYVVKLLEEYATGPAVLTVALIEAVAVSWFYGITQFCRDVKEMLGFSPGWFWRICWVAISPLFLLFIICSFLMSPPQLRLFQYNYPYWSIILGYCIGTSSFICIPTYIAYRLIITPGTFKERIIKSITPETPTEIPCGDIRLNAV
Sodium-dependent dopamine transporter (Homo sapiens, UniProt Q01959), sequence (Q01959 whole entry): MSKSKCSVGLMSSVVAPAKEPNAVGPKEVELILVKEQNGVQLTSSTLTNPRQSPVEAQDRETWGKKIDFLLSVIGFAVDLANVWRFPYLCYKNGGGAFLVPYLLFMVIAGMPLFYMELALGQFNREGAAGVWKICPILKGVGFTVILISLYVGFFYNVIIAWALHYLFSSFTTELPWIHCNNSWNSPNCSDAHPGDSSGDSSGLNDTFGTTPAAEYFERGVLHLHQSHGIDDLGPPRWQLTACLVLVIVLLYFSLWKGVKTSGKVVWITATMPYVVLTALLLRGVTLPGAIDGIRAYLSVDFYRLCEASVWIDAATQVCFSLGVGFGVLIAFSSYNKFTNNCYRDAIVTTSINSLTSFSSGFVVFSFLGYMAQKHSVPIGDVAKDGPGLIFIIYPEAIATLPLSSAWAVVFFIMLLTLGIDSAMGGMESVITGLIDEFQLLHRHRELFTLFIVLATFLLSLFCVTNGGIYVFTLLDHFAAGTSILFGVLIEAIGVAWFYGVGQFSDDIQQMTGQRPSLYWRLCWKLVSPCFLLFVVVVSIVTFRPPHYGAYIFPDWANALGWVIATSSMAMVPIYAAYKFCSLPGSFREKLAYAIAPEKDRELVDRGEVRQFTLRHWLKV
Voltage-gated inwardly rectifying potassium channel KCNH2, sequence (Q12809 whole entry): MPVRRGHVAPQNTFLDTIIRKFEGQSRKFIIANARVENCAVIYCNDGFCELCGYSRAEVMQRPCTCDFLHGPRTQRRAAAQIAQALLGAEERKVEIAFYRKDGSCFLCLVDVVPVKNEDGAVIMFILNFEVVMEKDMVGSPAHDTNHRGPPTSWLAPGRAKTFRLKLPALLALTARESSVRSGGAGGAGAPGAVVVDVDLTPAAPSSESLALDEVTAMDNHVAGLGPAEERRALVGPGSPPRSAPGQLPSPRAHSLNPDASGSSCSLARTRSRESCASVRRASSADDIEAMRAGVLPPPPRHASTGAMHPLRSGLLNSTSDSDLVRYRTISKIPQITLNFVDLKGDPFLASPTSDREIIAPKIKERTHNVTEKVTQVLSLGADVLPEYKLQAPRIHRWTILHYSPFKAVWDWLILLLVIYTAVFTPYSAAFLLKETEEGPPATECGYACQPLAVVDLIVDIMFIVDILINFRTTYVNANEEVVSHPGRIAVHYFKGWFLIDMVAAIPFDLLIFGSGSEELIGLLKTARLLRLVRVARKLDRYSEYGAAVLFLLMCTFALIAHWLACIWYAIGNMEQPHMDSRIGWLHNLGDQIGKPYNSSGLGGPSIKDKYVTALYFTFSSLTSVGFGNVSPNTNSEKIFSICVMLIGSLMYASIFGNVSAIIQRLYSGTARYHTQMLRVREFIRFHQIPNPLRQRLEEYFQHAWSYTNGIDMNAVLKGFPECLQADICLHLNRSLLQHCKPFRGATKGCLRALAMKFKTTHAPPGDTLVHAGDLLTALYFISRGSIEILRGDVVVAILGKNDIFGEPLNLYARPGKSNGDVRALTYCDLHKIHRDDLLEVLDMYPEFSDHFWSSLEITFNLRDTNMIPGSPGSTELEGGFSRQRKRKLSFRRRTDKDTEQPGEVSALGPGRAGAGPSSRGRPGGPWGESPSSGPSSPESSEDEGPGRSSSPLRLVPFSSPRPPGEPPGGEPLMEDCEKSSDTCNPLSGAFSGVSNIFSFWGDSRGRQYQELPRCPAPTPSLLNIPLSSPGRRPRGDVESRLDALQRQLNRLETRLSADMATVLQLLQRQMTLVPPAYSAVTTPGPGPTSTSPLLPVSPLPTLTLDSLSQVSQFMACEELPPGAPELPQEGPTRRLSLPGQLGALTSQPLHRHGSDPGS
Description for physchem: Dissociation constant, pKa of the compound

For `C#CCN(CC#C)C(=O)[C@@]1(c2cccs2)C[C@H]1CN`, the CLhep predicted at 1 µM [1] was 2.6 mL/min/kg, the CLhep predicted at 1 µM [2] was 43 mL/min/kg and the logP [3] was 1.5. For the same compound, the IC50 [4] was greater than 10000 nM, the IC50 [5] was 26 nM and the IC50 [6] was 6 nM. It also gave a logD [7] of 0.2, a Papp A→B (in vitro) of 25 ×10⁻⁶ cm/s and a pKa (physchem) of 9.3.

Compound `C#CCN(CC)C(=O)[C@@]1(c2cccs2)C[C@H]1CN` has a half-life [8] of 114 min, an IC50 (Transporter) of 160 nM and a CLhep predicted at 1 µM [1] of 2.6 mL/min/kg. For the same compound, the CLhep predicted at 1 µM [2] was 44 mL/min/kg, the concentration at 4 h [9] was 112 ng/g and the Kp at 4 h [10] was 0.3. It also gave an IC50 [11] greater than 10000 nM, a logP [3] of 1.6 and an IC50 [4] greater than 10000 nM. It also gave a CL/F [12] of 156 mL/min/kg, an IC50 [5] of 81 nM and an IC50 [6] of 19 nM. It also gave an IC50 [13] of 160 nM, a logD [7] of 0.1 and a Papp A→B (in vitro) of 20.6 ×10⁻⁶ cm/s. It also gave a Kp at 1 h [14] of 0.3, a pKa (physchem) of 9.4 and an Activity (Rattus norvegicus [15]) of 56%. The Tmax [16] was 102 min, the AUC [17] was 3210 ng·h/mL and the Cmax [18] was 649 ng/mL. For the same compound, the concentration at 1 h [19] was 230 ng/g.

Work on `C=C(F)CN(CC)C(=O)[C@@]1(c2cccs2)C[C@H]1CN` yielded a half-life [20] of 36 min, a half-life [8] of 54 min and an IC50 (Transporter) of 21 nM. The CLhep predicted at 1 µM [1] was 2.6 mL/min/kg, the CLhep predicted at 1 µM [2] was 54 mL/min/kg and the concentration at 4 h [9] was 31 ng/g. It also gave a Kp at 4 h [10] of 1.1, an IC50 (Cytochrome P450 2D6) of 6000 nM and a dose excreted [21] of 30%. It also gave an IC50 [11] greater than 10000 nM, a logP [3] of 1.8 and a Vd [22] of 7.5 L/kg. The IC50 [4] was greater than 10000 nM, the CL/F [12] was 334 mL/min/kg and the IC50 [5] was 97 nM. The IC50 [6] was 4.4 nM, the IC50 [13] was 160 nM and the bioavailability [23] was 47%. The MRT [24] was 42 min, the CL renal [25] was 59 mL/min/kg and the logD [7] was 0.2. For the same compound, the IC50 [26] was greater than 10000 nM, the Papp A→B (in vitro) was 16.7 ×10⁻⁶ cm/s and the clearance [27] was 140 mL/min/kg. For the same compound, the Kp at 1 h [14] was 0.73, the pKa (physchem) was 9.4 and the Activity (Rattus norvegicus [15]) was 56%. The Vd [28] was 5.5 L/kg, the AUC [29] was 532 ng·h/mL and the Tmax [16] was 24 min. For the same compound, the AUC [17] was 1500 ng·h/mL, the Cmax [18] was 974 ng/mL and the concentration at 1 h [19] was 70 ng/g.

`C=CCN(Cc1nccs1)C(=O)[C@@]1(c2cccs2)C[C@H]1CN` showed a CLhep predicted at 1 µM [1] of 7 mL/min/kg, a CLhep predicted at 1 µM [2] of 47 mL/min/kg and a logP [3] of 1.6. It also gave an IC50 [4] greater than 10000 nM, an IC50 [5] of 16 nM and an IC50 [6] of 13 nM. The logD [7] was -0.4, the Papp A→B (in vitro) was 6.4 ×10⁻⁶ cm/s and the pKa (physchem) was 9.4.

For `CCN(CC)C(=O)[C@]1(c2ccccc2)C[C@H]1CN`, the IC50 (Transporter) was 16 nM, the CLhep predicted at 1 µM [1] was 5 mL/min/kg and the Activity (Rattus norvegicus [30]) was “Active”. The half-life [31] was 48 min, the CLhep predicted at 1 µM [2] was 24 mL/min/kg and the MRT [32] was 31.2 min. The Cmax [33] was 232 ng/mL, the Kp at 4 h (in vivo [34]) was 0.86 and the Activity (Rattus norvegicus [35]) was “Dose-dependent effect”. The AUC [36] was 566 ng·h/mL, the IC50 [11] was 20000 nM and the logP [3] was 1.6. The IC50 [13] was 28 nM, the logD [7] was -0.2 and the Kp at 1 h (in vivo [37]) was 0.42. The Vd [38] was 4.3 L/kg, the CL/F [39] was 294 mL/min/kg and the Tmax [40] was 18 min. For the same compound, the half-life [41] was 78 min, the pKa (physchem) was 9.6 and the clearance [42] was 58 mL/min/kg. It also gave a Vd [43] of 2 L/kg, an Activity (Rattus norvegicus [15]) of 56% and a bioavailability [44] of 16%. The AUC [45] was 897 ng·h/mL.

In the case of `C=CCN(CC=C)C(=O)[C@@]1(c2cccs2)C[C@H]1CN`, the Activity (Rattus norvegicus [35]) is reported as “Dose-dependent effect” and the Activity (Rattus norvegicus [46]) is reported as “Active”.

In the case of `C[C@H]1O[C@@H](O[C@H]2[C@@H](O)C[C@H](O[C@H]3[C@@H](O)C[C@H](O[C@H]4CC[C@@]5(C)[C@H](CC[C@@H]6[C@@H]5C[C@@H](O)[C@]5(C)[C@@H](C7=CC(=O)OC7)CC[C@]65O)C4)O[C@@H]3C)O[C@@H]2C)C[C@H](O)[C@@H]1O` [DIGOXIN], the Papp A→B (in vitro) is reported as 1 ×10⁻⁶ cm/s.
